# Test results as given in PubChem BioAssay (NCI).
#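 Five compound concentrations were applied to cells in 96-well plates for 48 hours; endpoints were derived by simple linear interpolation of the resulting dose-response curve. The concentration for full growth arrest is given as TGI.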
# Experiments:
# Assay in all cases: DTP human tumour cell line panel, 48 h
# UO-31 renal = system: UO-31 renal
# HS 578T breast = system: HS 578T breast
# SK-MEL-5 melanoma = system: SK-MEL-5 melanoma
# NCI-H23 lung = system: NCI-H23 lung
# EKVX NSCLC = system: EKVX NSCLC
# KM12 colon = system: KM12 colon
# SNB-75 CNS = system: SNB-75 CNS
# U251 CNS = system: U251 CNS
# RXF 393 renal = system: RXF 393 renal
SMILES,TGI (UO-31 renal) [µM],TGI (HS 578T breast) [µM],TGI (SK-MEL-5 melanoma) [µM],TGI (NCI-H23 lung) [µM],TGI (EKVX NSCLC) [µM],TGI (KM12 colon) [µM],TGI (SNB-75 CNS) [µM],TGI (U251 CNS) [µM],TGI (RXF 393 renal) [µM]
N#Cc1ccc(OCc2nc3cc(C(F)(F)F)ccc3nc2-c2ccccc2)cc1,> 100,> 100,> 100,> 100,> 100,> 100,> 100,> 100,
Cc1nnc2n1-c1ccccc1C(=S)N1CSCC21 (stereo unspecified),> 100,> 100,> 100,,> 100,> 100,> 100,> 100,> 100
CC1(C)Oc2ccc3c(=O)cc(-c4ccc(F)cc4)oc3c2C1C(=O)O (stereo unspecified),,> 100,> 100,> 100,> 100,,,> 100,> 100
N#CC1(C#N)NC(c2ccsc2)C(C#N)(C#N)NC1c1ccsc1 (stereo unspecified),> 100,> 100,> 100,> 100,> 100,> 100,> 100,> 100,
CN1CN(c2ccccc2)C2(CCN(CCc3csc4ccccc34)CC2)C1=O,14.3,,33.3,42.5,43,25.9,38.5,29.8,25.3
C[Si](C)(OCCS(=O)(=O)O)C1S(=O)(=O)OCCOS1(=O)=O,> 100,,> 100,> 100,> 100,> 100,59.9,> 100,> 100
N/C(=N/n1c(=S)[nH]c2ccccc2c1=O)Nn1c(=S)[nH]c2ccccc2c1=O,27.3,,> 100,62.4,> 100,> 100,> 100,72.3,> 100
CC1(C)CC(=O)c2c(nc3ccc4ccccc4c3c2-c2ccc(NC(=O)CCC(=O)Nc3ccc(-c4c5c(nc6ccc7ccccc7c46)CC(C)(C)CC5=O)cc3)cc2)C1,> 100,> 100,> 100,,> 100,> 100,> 100,> 100,> 100
COc1ccc(CC2NC(=O)/C=C/CC(C(C)C3OC3c3ccccc3)OC(=O)C(CC(C)C)OC(=O)C(C)CNC2=O)cc1Cl (stereo unspecified),,,0.000657,> 0.1,,> 0.1,> 0.1,> 0.1,
O=c1[nH]nc(Cc2ccccc2)n1Nc1ccccc1,> 100,> 100,> 100,> 100,> 100,> 100,> 100,> 100,
C=CC[C@H](C)CCC(=O)N1[C@H]2CC3CC[C@@]2(CS1(=O)=O)C3(C)C,> 100,> 100,51.3,> 100,> 100,> 100,,> 100,> 100
C#C[C@]1(O)CC[C@H]2[C@@H]3CCc4cc(OC(=O)c5cccc6cc7ccccc7nc56)ccc4[C@H]3CC[C@@]21C,,> 100,29.5,> 100,> 100,50.6,> 100,> 100,> 100
CCC1C(c2cc(OC)c(OC)c(OC)c2)c2cc3c(cc2OC1N1CCOCC1)OCO3 (stereo unspecified),17.5,28.9,6.38,,54.1,,26.3,,
COc1cc2c(c(OC)c1OC)-c1ccc(SC)cc1[C@H](OC(=O)c1ccccc1)CC2,> 100,,1.21,> 100,> 100,> 100,> 100,,0.452
CC1C[C@]2(C)C(=O)N(c3ccccc3)C(=N)[C@@H]2N(C)c2ccccc21 (stereo partly specified),> 100,> 100,> 100,> 100,> 100,> 100,> 100,,> 100
COc1ccc2c(c1)c1c(n2CCN2CCCCC2)-c2ccccc2CC1,26.1,28.5,37.3,31.9,36.7,27.3,35.1,30.5,
S=C1N=C(Cl)C2(NN1)c1ccccc1-c1ccccc12,> 10,> 10,> 10,> 10,> 10,> 10,> 10,> 10,
CCOc1cc(NC(C)=O)ccc1C(=O)NN1C(=O)/C(=C/c2cc(OC)c(OC)c(OC)c2)N=C1c1ccccc1,> 100,> 100,> 100,> 100,> 100,98.2,,,
CCOC(=O)CCC(NC(=O)c1ccc(N2CCN(c3c(C)nc(N)nc3N)CC2)cc1)C(=O)OCC (stereo unspecified),> 100,> 100,19.6,> 100,> 100,> 100,> 100,> 100,
